How the values were obtained:
KRas WT = KRas WT (Homo sapiens, UniProt P01116); assay: biochemical;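 also: binding to KRas read as TR-FRET displacement after a one-hour room-temperature incubation, IC50 derived from percent-of-control values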
Protocol: (§2) The ability of a compound to bind to KRas was measured using a TR-FRET displacement assay. […] After a 60-minute incubation at room temperature, the reaction was measured using a BMG LABTECH CLARIO star Plus via TR-FRET. […] The POC values were fit to a 4-parameter IC50 equation and the IC50 value reported.

KRas G12A = KRas G12A (Homo sapiens, UniProt P01116, G12A); assay: biochemical;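 also: binding to KRas measured by TR-FRET displacement after one hour at room temperature, IC50 from a four-parameter fit of percent-of-control values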
Protocol: as §2

KRas G12V = KRas G12V (Homo sapiens, UniProt P01116, G12V); assay: biochemical;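 also: KRas binding measured by TR-FRET displacement at room temperature, IC50 fitted from percent of control values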
Protocol: as §2

KRas G13D = molecular target: T1, KRas G13D (Homo sapiens, UniProt P01116, G13D); assay: KRas binding assay (TR-FRET displacement);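 also: One-hour room temperature incubation before TR-FRET reading, IC50 from a four-parameter curve fit to percent-of-control data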
T1 construct: Biotinylated KRas (corresponding to amino acids 1-169, produced at Accelegan Inc.); biotin (biotinylated); purchased Accelegan Inc
Protocol: as §2

KRas G12D = KRas G12D (Homo sapiens, UniProt P01116, G12D); assay: biochemical;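 also: TR-FRET displacement binding assay on KRas, read after a one-hour incubation at room temperature, IC50 fitted from percent-of-control values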
Protocol: as §2

KRas G12S = KRas G12S (Homo sapiens, UniProt P01116, G12S); assay: biochemical;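 also: TR-FRET displacement binding to KRas, read after one hour incubation at room temperature, IC50 from four-parameter fit of percent of control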
Protocol: as §2

KRas Q61H = molecular target: T2, KRas Q61H (Homo sapiens, UniProt P01116, Q61H); assay: KRas binding assay (TR-FRET displacement);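 also: TR-FRET signal read after one hour at room temperature, IC50 derived by four-parameter fitting of percent-of-control values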
T2 construct: Biotinylated KRas (corresponding to amino acids 1-169, produced at Accelegan Inc.); biotin (biotinylated); purchased Accelegan Inc
Protocol: as §2

KRas G12C = KRas G12C (Homo sapiens, UniProt P01116, G12C); assay: biochemical;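 also: binding to KRas assessed by TR-FRET displacement after one hour incubation at room temperature, potency fitted from percent-of-control values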
Protocol: as §2

KRas G12R = KRas G12R (Homo sapiens, UniProt P01116, G12R); assay: biochemical;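 also: TR-FRET displacement assay of compound binding to KRas, read after one hour at room temperature, potency from a four-parameter fit of percent-of-control values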
Protocol: as §2

[1] = test system: phospho-ERK in NCI-H460 (Q61H) cells; assay: Inhibition of KRas-mediated phosphorylation of ERK (in-cell western); type: cell-based; conditions: Homo sapiens, NCI-H460, 3 h, 3 hours compound, phospho-ERK normalized to GAPDH
Procedure, shortened: (§1)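 Following fixation in formaldehyde and permeabilization in cold methanol, ERK phosphorylated at Thr202/Tyr204 was quantified against GAPDH.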

[2] = test system: phospho-ERK in NCI-H727 (G12V) cells; assay: as above; type: cell-based; conditions: Homo sapiens, NCI-H727, 3 h, 3 hours compound, phospho-ERK normalized to GAPDH
Procedure, shortened: as §1

[3] = test system: phospho-ERK in AsPC-1 (G12D) cells; assay: as above; type: cell-based; conditions: Homo sapiens, ASPC1, 3 h, 3 hours compound, phospho-ERK normalized to GAPDH
Procedure, shortened: as §1

pERK in ASPC1 cells = assay: Inhibition of KRas phosphorylation of ERK (Cisbio HTRF pERK assay); conditions: Homo sapiens, ASPC1, read-out: Inhibition (HTRF IC50) of KRas-mediated Phosphorylation of ERK, AsPC-1
pERK in A549 cells = assay: as above; conditions: Homo sapiens, A549, read-out: Inhibition (HTRF IC50) of KRas-mediated Phosphorylation of ERK, A549
Protocol: (§3) To harvest cells from flask using 0.05% Trypsin/EDTA solution. Add 10 mL of media to stop trypsinizing. Pipette the cells into a conical bottom 50 mL centrifuge tube and centrifuge 5 min×1000 rpm. • 2. Re-suspend the cell pellet in media, take a cell count, and then adjust the cell density using fresh media. • 3. Seed 6,000 cells into cell culture plate with 50 μL media. […] Incubate cell plate overnight in a 37° C., 5% CO2 incubator. • Compound titrations • 1. Use Tecan to complete the compound addition. Compounds start from 10 uM top, 3-fold dilution, and 10 doses. The final DMSO concentration is 0.8%. Dispensed 0.2 uM Trametinib as Min control. • 2. Incubate cell plate for 3 hrs in the incubator. • Detection with cisbio pERK HTRF kit • 1. […] At the end of the compound treatment, flick-off the media. • 3. Add 35 μL of lysis buffer per well using a Multidrop Combi. Then place on a plate agitator shaking at 300 rpm at 4° C. for 40 mins. • 4. Make up the HTRF antibody buffer. For each assay plate, mix 50 μL of d2-conjugate antibody with 950 μL of detection buffer. Similarly, mix 50 μL of Cryptate antibody with 950 μL of detection buffer. Then mix the two diluted antibodies together. • 5. Dispense 3.4 μL the antibody buffer to wells of an empty assay plate. Seal the plate and centrifuge plate 30 sec×1000 rpm. • 6. At the end of the 4° C. lysis, centrifuge the lysate plates 3 mins×1500 rpm. • 7. Use the Bravo to transfer 13.6 μL of lysate from cell culture plate to assay plate.
(§4) Then incubate assay plate for 2 hrs at room temperature. […] At the end of incubation, read plate on the Envision after centrifuging plate 30 sec× • 1000 rpm.

pERK in PSN1 cells = assay: as above; conditions: Homo sapiens, PSN1, 3 h, read-out: Inhibition (HTRF IC50) of KRas-mediated Phosphorylation of ERK, PSN1
pERK in H727 cells = assay: as above; conditions: Homo sapiens, NCI-H727, read-out: Inhibition (HTRF IC50) of KRas-mediated Phosphorylation of ERK, H727
Protocol: as §3, §4

pERK in MKN1 cells = assay: as above; conditions: Homo sapiens, MKN-1, 3 h, read-out: Inhibition (HTRF IC50) of KRas-mediated Phosphorylation of ERK, MKN1
pERK in HCT116 cells = assay: as above; conditions: Homo sapiens, HCT-116, read-out: Inhibition (HTRF IC50) of KRas-mediated Phosphorylation of ERK, HCT116
pERK in H460 cells = assay: as above; conditions: Homo sapiens, NCI-H460, read-out: Inhibition (HTRF IC50) of KRas-mediated Phosphorylation of ERK, H460

Sequence of KRas G12R (P01116 1-169 isoform P01116-2 G12R): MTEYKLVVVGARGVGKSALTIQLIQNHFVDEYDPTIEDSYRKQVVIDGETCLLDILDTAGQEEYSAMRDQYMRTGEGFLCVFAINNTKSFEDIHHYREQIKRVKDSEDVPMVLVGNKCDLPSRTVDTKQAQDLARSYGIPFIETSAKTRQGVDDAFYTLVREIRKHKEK
Sequence of KRas G12D (P01116 1-169 isoform P01116-2 G12D): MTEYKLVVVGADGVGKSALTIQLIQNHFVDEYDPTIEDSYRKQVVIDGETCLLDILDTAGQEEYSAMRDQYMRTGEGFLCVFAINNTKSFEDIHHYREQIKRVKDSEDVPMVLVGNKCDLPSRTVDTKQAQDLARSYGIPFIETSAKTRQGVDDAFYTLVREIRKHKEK
Sequence of KRas G12V (P01116 1-169 isoform P01116-2 G12V): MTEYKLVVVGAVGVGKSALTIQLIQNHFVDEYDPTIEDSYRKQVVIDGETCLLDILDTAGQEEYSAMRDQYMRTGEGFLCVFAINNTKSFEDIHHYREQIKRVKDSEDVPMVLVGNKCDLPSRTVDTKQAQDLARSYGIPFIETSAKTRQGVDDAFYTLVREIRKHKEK
Sequence of KRas WT (P01116 1-169 isoform P01116-2): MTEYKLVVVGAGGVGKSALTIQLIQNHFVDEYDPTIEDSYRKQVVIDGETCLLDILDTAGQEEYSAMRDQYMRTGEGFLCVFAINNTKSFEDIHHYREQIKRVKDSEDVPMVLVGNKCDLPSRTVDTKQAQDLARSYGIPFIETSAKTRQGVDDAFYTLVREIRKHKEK
Sequence of KRas G12C (P01116 1-169 isoform P01116-2 G12C): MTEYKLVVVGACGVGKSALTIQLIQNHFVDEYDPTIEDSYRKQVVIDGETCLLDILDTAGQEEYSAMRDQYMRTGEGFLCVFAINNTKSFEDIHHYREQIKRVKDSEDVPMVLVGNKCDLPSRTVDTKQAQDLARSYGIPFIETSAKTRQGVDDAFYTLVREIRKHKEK
T2 sequence (P01116 1-169 isoform P01116-2 Q61H): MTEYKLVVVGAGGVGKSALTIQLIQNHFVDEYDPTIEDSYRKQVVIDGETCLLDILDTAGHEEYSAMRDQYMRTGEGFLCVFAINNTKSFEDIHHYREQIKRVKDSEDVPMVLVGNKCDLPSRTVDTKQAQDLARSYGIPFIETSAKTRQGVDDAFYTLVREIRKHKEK
T1 sequence (P01116 1-169 isoform P01116-2 G13D): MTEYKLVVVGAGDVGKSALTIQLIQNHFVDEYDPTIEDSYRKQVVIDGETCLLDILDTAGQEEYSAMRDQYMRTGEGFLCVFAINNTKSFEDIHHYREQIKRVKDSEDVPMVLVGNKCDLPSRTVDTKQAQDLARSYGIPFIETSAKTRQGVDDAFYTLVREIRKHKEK
Sequence of KRas G12A (P01116 1-169 isoform P01116-2 G12A): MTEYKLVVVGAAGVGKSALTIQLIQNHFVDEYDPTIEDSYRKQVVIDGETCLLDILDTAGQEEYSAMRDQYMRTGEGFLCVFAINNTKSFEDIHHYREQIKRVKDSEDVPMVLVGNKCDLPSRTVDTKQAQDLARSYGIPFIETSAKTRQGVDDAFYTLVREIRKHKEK
Sequence of KRas G12S (P01116 1-169 isoform P01116-2 G12S): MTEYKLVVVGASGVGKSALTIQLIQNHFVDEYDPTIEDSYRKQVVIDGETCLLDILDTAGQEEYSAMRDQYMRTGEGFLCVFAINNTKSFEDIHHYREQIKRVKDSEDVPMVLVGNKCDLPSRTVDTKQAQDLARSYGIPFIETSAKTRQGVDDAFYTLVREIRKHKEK

Row | Compound | IC50 (KRas WT) [nM] | IC50 (KRas G12A) [nM] | IC50 (KRas G12V) [nM] | IC50 (KRas G13D) [nM] | IC50 (KRas G12D) [nM] | IC50 (KRas G12S) [nM] | IC50 (KRas Q61H) [nM] | IC50 (KRas G12C) [nM] | IC50 (KRas G12R) [nM] | IC50 [1] [nM] | IC50 [2] [nM] | IC50 [3] [nM] | IC50 (pERK in ASPC1 cells) [nM] | IC50 (pERK in A549 cells) [nM] | IC50 (pERK in PSN1 cells) [nM] | IC50 (pERK in H727 cells) [nM] | IC50 (pERK in MKN1 cells) [nM] | IC50 (pERK in HCT116 cells) [nM] | IC50 (pERK in H460 cells) [nM]
1 | C[C@H]1C[C@H]1c1c(Cl)cc2[nH]ncc2c1-c1ncc2c(N3CCC[C@@](C)(O)C3)nc(OC[C@@]34CCCN3C[C@H](F)C4)nc2c1F (racemic) [Example 153, (3R)-1-(7-(6-chloro-5-(2-methylcyclopropyl)-1H-indazol-4-yl)-8-fluoro-2-(((2R,7aS)-2-fluorotetrahydro-1H-pyrrolizin-7a(5H)-yl)methoxy)pyrido[4,3-d]pyrimidin-4-yl)-3-methylpiperidin-3-ol] | 6 | 7 | 5 | 8 | 6 | 7 | 7 | 7 | 10 | 306 | 500 | 233 | – | – | – | – | – | – | –
2 | CCc1c(F)ccc2cc(O)cc(-c3ncc4c(N5CCC[C@@](C)(O)C5)nc(OC[C@@]56CCCN5C[C@H](F)C6)nc4c3F)c12 [Example 5] | – | – | – | – | – | – | – | – | – | – | – | – | 2 | 2 | 364 | – | – | – | –
3 | CCc1c(F)ccc2cc(O)cc(-c3ncc4c(N5CCCCC(S(C)(=O)=O)C5)nc(OC[C@@]56CCCN5C[C@H](F)C6)nc4c3F)c12 (stereo partly drawn) [Example 308, 5-ethyl-6-fluoro-4-(8-fluoro-2-(((2R,7aS)-2-fluorohexahydro-1H-pyrrolizin-7a-yl)methoxy)-4-(3-(methylsulfonyl)azepan-1-yl)pyrido[4,3-d]pyrimidin-7-yl)naphthalen-2-ol] | – | – | 4 | – | 6 | – | – | – | 10 | 372 | 627 | 489 | 155 | – | ≥ 10000 | 278 | 40 | 284 | –
4 | CCc1c(F)ccc2cc(O)cc(-c3ncc4c(N5CCCC6(CCC6O)C5)nc(OC[C@@]56CCCN5C[C@H](F)C6)nc4c3F)c12 (stereo partly drawn) [Example 351, 6-(7-(8-ethyl-7-fluoro-3-hydroxynaphthalen-1-yl)-8-fluoro-2-(((2R,7aS)-2-fluorohexahydro-1H-pyrrolizin-7a-yl)methoxy)pyrido[4,3-d]pyrimidin-4-yl)-6-azaspiro[3.5]nonan-1-ol] | – | – | 15 | – | 13 | – | – | – | 11 | – | – | – | 228 | 185 | 7180 | 551 | 48 | 346 | 182
5 | CCc1c(F)ccc2cc(O)cc(-c3ncc4c(N5CCCC6(CNS(=O)(=O)N6)C5)nc(OCC5(CN(C)C)CC5)nc4c3F)c12 (centres unmarked) [Example 364, 7-(2-((1-((dimethylamino)methyl)cyclopropyl)methoxy)-7-(8-ethyl-7-fluoro-3-hydroxynaphthalen-1-yl)-8-fluoropyrido[4,3-d]pyrimidin-4-yl)-2-thia-1,3,7-triazaspiro[4.5]decane 2,2-dioxide] | – | – | ≤ 2 | – | ≤ 2 | – | – | – | ≤ 2 | – | – | – | 121 | 219 | ≥ 10000 | 578 | 26 | 645 | 117
6 | C#Cc1c(F)ccc2cc(O)cc(-c3ncc4c(N5CC6CC(O)CC5C6)nc(OC[C@@]56CCCN5C[C@H](F)C6)nc4c3F)c12 (stereo partly drawn) [Example 390, 6-(7-(8-ethynyl-7-fluoro-3-hydroxynaphthalen-1-yl)-8-fluoro-2-(((2R,7aS)-2-fluorohexahydro-1H-pyrrolizin-7a-yl)methoxy)pyrido[4,3-d]pyrimidin-4-yl)-6-azabicyclo[3,2,1]octan-3-ol] | – | – | ≤ 2 | – | ≤ 2 | – | – | – | ≤ 2 | – | – | – | 195 | 114 | 748 | 16 | 8 | 190 | 175
7 | C#Cc1c(F)ccc2cc(O)cc(-c3ncc4c(N5CCCn6nc(N)cc6C5)nc(OC[C@@]56CCCN5C[C@H](F)C6)nc4c3F)c12 [Example 394, 4-(4-(2-amino-7,8-dihydro-4H-pyrazolo[1,5-a][1,4]diazepin-5(6H)-yl)-8-fluoro-2-(((2R,7aS)-2-fluorohexahydro-1H-pyrrolizin-7a-yl)methoxy)pyrido[4,3-d]pyrimidin-7-yl)-5-ethynyl-6-fluoronaphthalen-2-ol] | – | – | ≤ 2 | – | ≤ 2 | – | – | – | ≤ 2 | – | – | – | 158 | 567 | ≥ 10000 | 368 | 46 | 1720 | 1070
8 | Oc1cc(-c2ncc3c(N4CC5CC(O)CC4C5)nc(OC[C@@]45CCCN4C[C@H](F)C5)nc3c2F)c2c(Br)c(F)ccc2c1 (stereo partly drawn) [Example 403, 6-(7-(8-bromo-7-fluoro-3-hydroxynaphthalen-1-yl)-8-fluoro-2-(((2R,7aS)-2-fluorohexahydro-1H-pyrrolizin-7a-yl)methoxy)pyrido[4,3-d]pyrimidin-4-yl)-6-azabicyclo[3.2.1]octan-3-ol] | – | – | ≤ 2 | – | 6 | – | – | – | ≤ 2 | – | – | – | 426 | 96 | 3820 | 79 | 20 | 487 | 182
9 | O=C1CC2(CCCN(c3nc(OC[C@@]45CCCN4C[C@H](F)C5)nc4c(F)c(-c5cc(O)cc6ccc(F)c(Br)c56)ncc34)C2)N1 (stereo partly drawn) [Example 405, 6-(7-(8-bromo-7-fluoro-3-hydroxynaphthalen-1-yl)-8-fluoro-2-(((2R,7aS)-2-fluorohexahydro-1H-pyrrolizin-7a-yl)methoxy)pyrido[4,3-d]pyrimidin-4-yl)-1,6-diazaspiro[3.5]nonan-2-one] | – | – | ≤ 2 | – | ≤ 2 | – | – | – | ≤ 2 | – | – | – | 238 | 247 | 6730 | 114 | 45 | 2210 | 155
10 | CN(C)CC1(COc2nc(N3CCCC4(CNS(=O)(=O)N4)C3)c3cnc(-c4cc(O)cc5ccc(F)c(Cl)c45)c(F)c3n2)CC1 (centres unmarked) [Example 428, 7-(7-(8-chloro-7-fluoro-3-hydroxynaphthalen-1-yl)-2-((1-((dimethylamino)methyl)cyclopropyl)methoxy)-8-fluoropyrido[4,3-d]pyrimidin-4-yl)-2-thia-1,3,7-triazaspiro[4.5]decane 2,2-dioxide] | – | – | ≤ 2 | – | ≤ 2 | – | – | – | ≤ 2 | – | – | – | 339 | 183 | 3280 | 425 | 28 | 896 | –
11 | CCc1c(F)ccc2cc(O)cc(-c3ncc4c(N5CC6C(=O)NC(=O)C6(C)C5)nc(OC[C@@]56CCCN5C[C@H](F)C6)nc4c3F)c12 (stereo partly drawn) [Example 482, 5-(7-(8-ethyl-7-fluoro-3-hydroxynaphthalen-1-yl)-8-fluoro-2-(((2R,7aS)-2-fluorohexahydro-1H-pyrrolizin-7a-yl)methoxy)pyrido[4,3-d]pyrimidin-4-yl)-3a-methyltetrahydropyrrolo[3,4-c]pyrrole-1,3(2H,3aH)-dione] | – | – | ≤ 2 | – | ≤ 2 | – | – | – | 3 | – | – | – | 546 | 390 | ≥ 10000 | 128 | 26 | – | 124

Reference: patent publication US12398154B2, “Azaquinazoline pan-KRas inhibitors” (Mirati Therapeutics, Inc., priority 2020, dated 2025)
